Results taken from ChEMBL document CHEMBL6071121, “Synthetic approaches and clinical application of small-molecule inhibitors of sodium-dependent glucose transporters 2 for the treatment of type 2 diabetes mellitus” (Eur J Med Chem, 2024).

Columns and labels:
[1] = target: T1, Sodium/glucose cotransporter 2 (Mus musculus) (UniProt Q923I7); assay: In vivo inhibition of SGLT2-mediated reduction in urinary glucose excretion in mouse administered orally; type: functional, organism-based; details: route po
T1 sequence (whole entry): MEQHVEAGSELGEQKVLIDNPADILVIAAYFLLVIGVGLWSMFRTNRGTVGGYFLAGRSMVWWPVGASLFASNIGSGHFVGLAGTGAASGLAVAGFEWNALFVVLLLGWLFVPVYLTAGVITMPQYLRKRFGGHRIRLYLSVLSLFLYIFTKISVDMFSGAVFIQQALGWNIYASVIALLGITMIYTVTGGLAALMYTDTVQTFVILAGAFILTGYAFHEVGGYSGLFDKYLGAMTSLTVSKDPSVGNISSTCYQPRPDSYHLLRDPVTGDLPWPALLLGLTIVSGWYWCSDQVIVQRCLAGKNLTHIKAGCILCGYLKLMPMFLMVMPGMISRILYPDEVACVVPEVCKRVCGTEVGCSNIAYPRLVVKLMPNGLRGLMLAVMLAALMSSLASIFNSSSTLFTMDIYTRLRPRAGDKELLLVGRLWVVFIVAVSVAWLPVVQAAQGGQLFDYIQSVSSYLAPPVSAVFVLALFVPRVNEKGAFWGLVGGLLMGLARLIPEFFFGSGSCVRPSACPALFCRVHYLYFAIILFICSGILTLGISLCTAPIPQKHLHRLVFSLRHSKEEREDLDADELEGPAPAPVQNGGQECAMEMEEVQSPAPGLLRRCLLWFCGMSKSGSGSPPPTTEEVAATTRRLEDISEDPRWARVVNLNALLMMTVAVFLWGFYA

[2] = target: T2, Sodium/glucose cotransporter 2 (Rattus norvegicus) (UniProt P53792); assay: In vivo inhibition of SGLT2-mediated reduction in urinary glucose excretion in rat administered orally; type: functional, organism-based; details: route po
T2 sequence (whole entry): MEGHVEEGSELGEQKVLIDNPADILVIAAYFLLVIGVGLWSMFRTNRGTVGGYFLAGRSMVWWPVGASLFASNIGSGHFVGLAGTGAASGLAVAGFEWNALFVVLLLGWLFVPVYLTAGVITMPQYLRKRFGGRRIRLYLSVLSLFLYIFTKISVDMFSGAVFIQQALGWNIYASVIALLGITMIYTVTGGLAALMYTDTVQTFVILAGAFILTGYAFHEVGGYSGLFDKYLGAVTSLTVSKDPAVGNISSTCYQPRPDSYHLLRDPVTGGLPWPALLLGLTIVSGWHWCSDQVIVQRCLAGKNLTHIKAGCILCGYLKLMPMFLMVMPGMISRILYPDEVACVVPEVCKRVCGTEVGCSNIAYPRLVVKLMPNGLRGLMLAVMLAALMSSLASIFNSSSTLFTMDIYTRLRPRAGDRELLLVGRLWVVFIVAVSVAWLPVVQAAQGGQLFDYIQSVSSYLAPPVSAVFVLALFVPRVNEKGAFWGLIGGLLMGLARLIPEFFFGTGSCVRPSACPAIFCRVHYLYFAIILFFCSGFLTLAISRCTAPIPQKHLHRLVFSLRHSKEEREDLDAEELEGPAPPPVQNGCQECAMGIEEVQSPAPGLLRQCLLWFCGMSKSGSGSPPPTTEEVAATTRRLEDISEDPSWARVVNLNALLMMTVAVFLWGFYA

[3] = target: T1, Sodium/glucose cotransporter 2 (Mus musculus); assay: In vivo inhibition of SGLT2-mediated increase in blood glucose level in mouse administered intraperitoneally; type: functional, organism-based; details: route ip
[4] = target: T1, Sodium/glucose cotransporter 2 (Mus musculus); assay: In vivo inhibition of SGLT2-mediated increase in blood glucose level in mouse administered orally; type: functional, organism-based; details: route po
[5] = target: T3, Sodium/glucose cotransporter 1 (Homo sapiens, UniProt P13866); assay: Inhibition of SGLT1 (unknown origin)
T3 sequence (P13866 whole entry): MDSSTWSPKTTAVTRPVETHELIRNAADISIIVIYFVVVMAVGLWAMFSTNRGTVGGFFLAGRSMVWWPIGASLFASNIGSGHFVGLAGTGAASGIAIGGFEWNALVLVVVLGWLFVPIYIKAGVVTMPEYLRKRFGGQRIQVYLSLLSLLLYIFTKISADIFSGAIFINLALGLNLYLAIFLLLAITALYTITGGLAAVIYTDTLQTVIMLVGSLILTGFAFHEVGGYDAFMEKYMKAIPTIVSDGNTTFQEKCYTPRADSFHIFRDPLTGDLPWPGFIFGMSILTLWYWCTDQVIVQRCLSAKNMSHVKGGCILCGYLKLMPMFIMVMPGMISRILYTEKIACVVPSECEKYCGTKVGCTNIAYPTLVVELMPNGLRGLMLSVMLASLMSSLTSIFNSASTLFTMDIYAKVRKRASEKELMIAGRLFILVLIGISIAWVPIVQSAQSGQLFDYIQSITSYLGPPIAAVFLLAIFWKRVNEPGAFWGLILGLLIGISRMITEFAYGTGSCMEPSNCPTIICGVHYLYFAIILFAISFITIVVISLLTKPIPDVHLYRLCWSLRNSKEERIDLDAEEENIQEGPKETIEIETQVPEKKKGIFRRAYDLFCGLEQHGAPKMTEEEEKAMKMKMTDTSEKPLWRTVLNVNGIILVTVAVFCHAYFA

[6] = target: T4, Sodium/glucose cotransporter 2 (Homo sapiens, UniProt P31639); assay: Inhibition of human SGLT2 expressed in HEK293 cells using 14C-AMG as substrate preincubated for 15 mins followed by substrate addition measured after 2 hrs by liquid scintillation counter analysis; type: cell-based
T4 sequence (P31639 whole entry): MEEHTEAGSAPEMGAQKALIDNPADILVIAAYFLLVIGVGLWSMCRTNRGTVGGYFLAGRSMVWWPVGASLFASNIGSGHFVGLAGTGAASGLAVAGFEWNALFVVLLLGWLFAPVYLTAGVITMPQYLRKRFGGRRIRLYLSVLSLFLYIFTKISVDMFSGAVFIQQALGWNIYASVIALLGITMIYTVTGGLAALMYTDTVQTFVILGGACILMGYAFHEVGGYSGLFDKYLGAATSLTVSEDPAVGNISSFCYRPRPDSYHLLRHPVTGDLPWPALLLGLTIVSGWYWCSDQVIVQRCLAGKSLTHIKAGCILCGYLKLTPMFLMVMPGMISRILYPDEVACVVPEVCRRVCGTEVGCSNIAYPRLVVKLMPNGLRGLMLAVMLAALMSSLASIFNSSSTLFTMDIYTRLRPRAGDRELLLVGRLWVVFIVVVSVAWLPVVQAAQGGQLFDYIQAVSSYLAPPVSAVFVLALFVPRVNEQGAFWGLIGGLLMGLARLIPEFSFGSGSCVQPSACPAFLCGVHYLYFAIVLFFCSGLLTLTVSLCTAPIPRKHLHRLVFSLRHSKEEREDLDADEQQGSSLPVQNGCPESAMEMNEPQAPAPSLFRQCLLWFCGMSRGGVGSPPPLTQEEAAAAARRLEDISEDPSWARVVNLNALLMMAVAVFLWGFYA

[7] = target: T3, Sodium/glucose cotransporter 1; assay: Inhibition of human SGLT1 expressed in HEK293 cells using 14C-AMG as substrate preincubated for 15 mins followed by substrate addition measured after 2 hrs by liquid scintillation counter analysis; type: cell-based
[8] = target: T4, Sodium/glucose cotransporter 2; assay: Inhibition of human SGLT2
[9] = target: T5, Sodium/glucose cotransporter 2 (Rattus norvegicus, UniProt P53792); assay: Inhibition of rat SGLT2
T5 sequence (P53792 whole entry): T2 sequence (whole entry)

[10] = target: T6, Sodium/glucose cotransporter 2 (Mus musculus, UniProt Q923I7); assay: Inhibition of mouse SGLT2
T6 sequence (Q923I7 whole entry): T1 sequence (whole entry)

COc1ccc(Cc2sccc2O[C@@H]2O[C@H](CO)[C@@H](O)[C@H](O)[C@H]2O)cc1 [ATIGLIFLOZIN]
ID30 [1]: 79 mg/kg
ID30 [2]: 39.8 mg/kg
ID50 [3]: 13.2 mg/kg
ID50 [4]: 26.1 mg/kg
IC50 [5]: > 10000 nM

CCOc1ccc(Cc2cc([C@@]34OC[C@@](CO)(O3)[C@@H](O)[C@H](O)[C@H]4O)ccc2Cl)cc1F [HENAGLIFLOZIN]
IC50 [6]: 2.38 nM
IC50 [7]: 4320 nM

CCOC(=O)OC[C@H]1O[C@@H](Oc2nn(C(C)C)c(C)c2Cc2ccc(OC(C)C)cc2)[C@H](O)[C@@H](O)[C@@H]1O [REMOGLIFLOZIN ETABONATE]
Ki [8]: 1950 nM
Ki [9]: 2140 nM

CCc1ccc(Cc2ccc3c(c2)[C@]2(OC3)O[C@H](CO)[C@@H](O)[C@H](O)[C@H]2O)cc1 [TOFOGLIFLOZIN]
Ki [8]: 2.9 nM
Ki [9]: 14.9 nM
Ki [10]: 6.4 nM
